Here are results for one molecule from US5126258A (priority 1988, dated 1992).

This experiment deals with monoclonal receptor P3 6D4. Briefly: Stoichiometric transacylation reaction of monoclonal receptor P3 6D4 with coumarin ester Compound 5 (fluorescence) and its inhibition/inactivation. It is filed as biochemical, mouse. A digest of the protocol:
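Antibody P3 6D4 (100 nM final) reacted at 23 °C with coumarin ester 5 in Tris-HCl or phosphate buffer (50 mM, pH 4–9), followed by fluorescence (ex 355/em 455 nm). Initial rates corrected for spontaneous hydrolysis; kinetic parameters from hyperbolic and double-reciprocal fits, Ki from Lineweaver-Burk with ≥5 inhibitor concentrations.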

Turning to `O=C(Cc1ccc(NC(=O)C(F)(F)F)cc1)Oc1ccc2ccc(=O)oc2c1` [Compound 5], the inactivation of receptor result is recorded as “specific inactivator”. Also, where the note is “IgG molecular weight 150,000 assumed”, the “stoichiometry, mole of ester per mole of combining sites” value is recorded as “one”. Further, the “rate change pH 8.0 versus pH 7.0” value (preliminary) is on record as “modest rate increase”.
